# PMC7725785, “TRIB3 promotes MYC-associated lymphoma development through suppression of UBE3B-mediated MYC degradation” (Nature Communications, 2020)
# Values joined by “and” are separate entries in the source; they are usually repeats but may differ in a detail not shown here. Equal entries are not always repeated.
# Experiments:
# [1] = system: MYC target genes; test: qRT-PCR of MYC target genes; type: cell-based, human; settings: qRT-PCR and RNA-seq; result in words
# Protocol: Total RNA was extracted using TRIzol (Invitrogen, CA, USA) according to the manufacturer’s instructions. Reverse transcription of total cellular RNA was carried out using oligo (dT) primers and M-MLV reverse transcriptase (Transgen Biotech, Beijing, China). PCR was performed using a Mycycler thermal cycler and analyzed using LineGene9600. The PCR primer sequences were as follows: MYC forward, 5′-[…]-3′; MYC reverse, 5′-[…]-3′; GAPDH forward, 5′-[…]-3′; GAPDH reverse, 5′-[…]-3′; TFAP4 forward, 5′-[…]-3′, TFAP4 reverse, 5′-[…]-3′; PLD6 forward, 5′-[…]-3′, PLD6 reverse, 5′-[…]-3′; CCNA1 forward, 5′-[…] GCAG-3′, CCNA1 reverse, 5′-[…]-3′; CCND1 forward, 5′-CCGTCC […]-3′, CCND1 reverse, 5′-[…]-3′; CCNE2 forward, 5′-TTC […]-3′; and CCNE2 reverse, 5′-[…]-3′. The human FBXW7 siRNA sequence was 5′-[…]-3′, the human MYC siRNA sequence was 5′-[…] GCGAA-3′, and the human HUWE1 siRNA sequence was 5′-[…]-3’. TRIB3 siRNAs were produced by RiboBio (Guangzhou, China) and transfected using Lipofectamine RNA interference MAX Transfection Reagent (Life Technologies, CA, USA) according to the manufacturer’s instructions.
# [2] = system: MYC and UBE3B; test: MYC/UBE3B colocalized foci in Raji cells; type: cell-based, human
# Protocol: A total of 1 × 10^6 cells were seeded overnight in a six-well plate. […] The cells were then treated with the Duolink In Situ Red Starter Mouse/Rabbit kit (Sigma Aldrich, DUO92101-1KT) according to the manufacturer’s instructions. Images were captured with an OLYMPUS confocal microscope.
# For immunofluorescence staining, cells seeded on coverslips were briefly washed with PBS and fixed with 4% buffered paraformaldehyde for 15 min, permeabilized with 0.5% Triton X- 100 for 15 min, blocked with 3% BSA for 30 min at 37 °C, and stained with specific primary antibodies followed by corresponding secondary antibodies. Nuclei were counterstained with DAPI. Images were captured using a confocal fluorescent microscope (Olympus Microsystems, CA, USA). Quantitative image analysis was performed with the Imaris 9.3.1 software. Pearson’s coefficient was use to analyze colocalization between two target proteins.
# [3] = system: MYC ubiquitination; test: MYC ubiquitination in PCON- and PCM4-treated Raji cells; type: cell-based, human; settings: lymphoma cells; result in words
# [4] = system: MYC protein; test: MYC protein level by immunoblotting in Jurkat and Raji cells; type: cell-based, human; settings: 4 μM, result in words
# Protocol: (§1) Co-IP experiments were performed as described previously. Briefly, cells were collected and lysed for 30 min on ice. Soluble lysates were incubated with the indicated antibodies at 4 °C overnight, followed by incubation with Protein A/G Plus-Agarose (Santa Cruz Biotechnology, TX, USA) at 4 °C for 2 h. Soluble lysates were incubated with the indicated Anti-Myc magnetic beads (Bimake.com, B26302), Anti-Flag Affinity Gel (Bimake.com, B23102) or Anti-HA Affinity Gel (Bimake.com, B23302) at 4 °C overnight. Immunocomplexes were separated from the beads and then boiled for 10 min. The precipitated proteins were subjected to SDS-PAGE and blotted with specific antibodies. For immunoblotting assays, proteins were extracted from cells, spleens, or lymphoma tissues using RIPA buffer (Cell Signaling Technology, MA, USA). A BCA Protein Assay Kit was used to determine protein concentrations. Protein extracts were separated by SDS-PAGE, transferred onto PVDF membranes, and subjected to immunoblot analysis. Western blot images were captured by a Tanon 5200 chemiluminescent imaging system (Tanon, Shanghai, Beijing). Human lymphoma and benign LN paraffin tissue microarrays were purchased from US Biomax (LM482a).
# [5] = system: TRIB3-MYC interaction and MYC expression; test: TRIB3/MYC Co-IP and MYC immunoblot in spleens and LNs of treated Myc^Eμ mice; type: in vivo, mouse; settings: Myc^Eμ mice; result in words
# Protocol: To evaluate the survival rate of secondary recipients, these mice were monitored for 70 days. For the evaluation of IHC staining and protein expression, three mice of each group were killed at the end of treatment, and the thymuses, spleens and LNs were collected for pathology detection, Co-IP, and western blot assays.
# as §1, with “Western blot images were captured by a Tanon 5200 chemiluminescent imaging system (Tanon, Shanghai, Beijing). Human lymphoma and benign LN paraffin tissue microarrays were purchased from US Biomax (LM482a).” left out
# [6] = system: Myc^Eμ BCL mice; test: Kaplan-Meier survival of Myc^Eμ BCL mice treated with DOX and peptide; type: in vivo, mouse; settings: DOX 2 mg/kg i.p. once a week and PCM4 5 mg/kg i.v. three times a week, 3 months, result in words
# Protocol: (§2) To evaluate the survival rate, these mice were monitored for 8 months (Myc^Eμ mice). […] During the indicated treatments, tumor burden was evaluated by measuring the tumor volume to determine the therapeutic efficacy in the PDX models.
# [7] = system: DLBCL^T69 PDX; test: PDX model tumor growth and weight, DLBCL T69; type: in vivo, human; settings: result in words
# Protocol: (§3) Four 5-week-old male NSG mice were implanted subcutaneously with 200 μl of a 1:1 mixture of Matrigel® Basement Membrane Matrix High Concentration (Corning, 354230) and minced fresh tumor fragments resected from lymphoma patients. Approximately 3–4 weeks following implantation, the first-generation mice (G1) were killed, and tumor masses were isolated. The tumor cells were tested for human CD19 (BCL) or CD3 expression (T cell lymphoma), and the remaining tumor mass was cut into 3-mm^3 sections and passaged into 4–5 NSG mice as the second generation (G2). After stable passage of the third generation (G3), the tumor mass of the fourth generation (G4) was equally cut into 3-mm^3 pieces and then passaged subcutaneously into 30–50 NSG mice (100 μl of a 1:2 mixture of Matrigel and tumor tissue) for in vivo treatment (6–8 mice per group, dependent on the experimental drug treatment). During and after treatment with the vehicle control or the indicated agent, tumor burden was evaluated by measuring the tumor volume to determine the therapeutic efficacy in the PDX models. […]
# as §2
# [8] = system: FL^T174 PDX; test: PDX model tumor growth and weight, FL T174; type: in vivo, human; settings: result in words
# Protocol: as §3, §2
# [9] = system: DLBCL^T156 PDX; test: PDX model tumor growth and weight, DLBCL T156; type: in vivo, human; settings: result in words
# Protocol: as §3, §2
# [10] = Serum ALT, AST, UREA and CRE (liver and renal function) in treated Myc^Eμ mice; settings: UREA, CRE, result in words
# Source text: The serum alanine transaminase (ALT) and aspartate transaminase (AST) levels of MycEµ mice with the indicated
# treatment were detected to evaluate liver function (n = 6 per group). Data are represented as means ± SEM. (b) Th e
# serum UREA and creatinine (CRE) levels of MycEµ mice with the indicated treatment were detected to evaluate
# renal function (n = 6 per group). Data are represented as means ± SEM.
sequence,measurement,setting,value
HLYVSPWGGKRREQLKHKLEQLR [PCM4],transcription of MYC target genes,[1],suppressed the transcription of MYC target genes
same,Fig 6f. MYC/UBE3B foci per cell,"[2]; 30 Min, single cells, n = 20",12 and 11
same,interaction of MYC and UBE3B,[2]; result in words,rescued the interaction of MYC and UBE3B
same,MYC ubiquitination and degradation,[3],rescued MYC ubiquitination and degradation
same,MYC abundance,[4],reduced the MYC abundance
same,TRIB3-MYC interaction and MYC expression in the LNs and spleens,[5],decrease in the TRIB3-MYC interaction and MYC expression
same,therapeutic efficacy / survival rate in combination with DOX,[6],enhanced the therapeutic efficacy of DOX
same,"growth and weights of tumors, combination of PCM4 and DOX","[7]; PDX T69 (high TRIB3 and MYC expression), PCM4 5 mg/kg and DOX 2 mg/kg",further decreased the growth and weights of tumors
same,tumor growth of PDX,"[7]; PDX T69, NSG mice, PCM4 5 mg/kg i.v. three times a week",inhibited the tumor growth
same,"growth and weights of tumors, combination of PCM4 and DOX","[8]; PDX T174 (high TRIB3 and MYC expression), PCM4 5 mg/kg and DOX 2 mg/kg",further decreased the growth and weights of tumors
same,tumor growth of PDX,"[8]; PDX T174, NSG mice, PCM4 5 mg/kg i.v. three times a week",inhibited the tumor growth
same,"growth and weights of tumors, combination of PCM4 and DOX","[9]; PDX T156 (high TRIB3 and MYC expression), PCM4 5 mg/kg and DOX 2 mg/kg",further decreased the growth and weights of tumors
same,tumor growth of PDX,"[9]; PDX T156, NSG mice, PCM4 5 mg/kg i.v. three times a week",inhibited the tumor growth
same,toxic effects (renal/liver function assays),[10],did not exert obvious toxic effects
